These results are taken from BindingDB's records for doi:10.1210/endo.135.6.7988476 (Mcgill University, 1994).

Molecules are shown by their SMILES. Bridge positions count the residues as written; N and C are the ends. Square brackets hold non-standard residues; d marks the D form. Peptide text beside a SMILES is read from it. * marks the point of attachment. NH(1-naphthylmethyl) = c1ccc2c(CN*)cccc2c1; Phe(4-Cl) = N[C@@H](Cc1ccc(Cl)cc1)C(=O)O; dPhe(4-Cl) = N[C@H](Cc1ccc(Cl)cc1)C(=O)O; 2Nal = N[C@@H](Cc1ccc2ccccc2c1)C(=O)O; d1Nal = N[C@H](Cc1cccc2ccccc12)C(=O)O; d2Nal = N[C@H](Cc1ccc2ccccc2c1)C(=O)O; Abu = CC[C@H](N)C(=O)O

Assay [1] concerns the target Somatostatin receptor type 3 (Homo sapiens, UniProt P32745).
Assay [2] has as its target Somatostatin receptor type 1 (Homo sapiens, UniProt P30872).
The target of assay [3] is Somatostatin receptor type 2 (Homo sapiens, UniProt P30874).
Somatostatin receptor type 2, sequence (P30874 whole entry): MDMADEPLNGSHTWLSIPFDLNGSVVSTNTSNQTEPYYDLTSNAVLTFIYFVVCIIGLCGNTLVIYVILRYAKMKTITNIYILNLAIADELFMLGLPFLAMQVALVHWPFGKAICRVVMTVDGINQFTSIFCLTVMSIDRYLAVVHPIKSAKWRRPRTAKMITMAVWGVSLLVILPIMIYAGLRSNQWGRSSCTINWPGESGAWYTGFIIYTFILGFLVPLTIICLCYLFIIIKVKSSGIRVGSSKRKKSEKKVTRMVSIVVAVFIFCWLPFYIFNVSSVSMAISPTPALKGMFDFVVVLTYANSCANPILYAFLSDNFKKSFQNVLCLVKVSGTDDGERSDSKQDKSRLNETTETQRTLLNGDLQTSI
The target of assay [4] is Somatostatin receptor type 4 (Homo sapiens, UniProt P31391).
Somatostatin receptor type 4, sequence (P31391 whole entry): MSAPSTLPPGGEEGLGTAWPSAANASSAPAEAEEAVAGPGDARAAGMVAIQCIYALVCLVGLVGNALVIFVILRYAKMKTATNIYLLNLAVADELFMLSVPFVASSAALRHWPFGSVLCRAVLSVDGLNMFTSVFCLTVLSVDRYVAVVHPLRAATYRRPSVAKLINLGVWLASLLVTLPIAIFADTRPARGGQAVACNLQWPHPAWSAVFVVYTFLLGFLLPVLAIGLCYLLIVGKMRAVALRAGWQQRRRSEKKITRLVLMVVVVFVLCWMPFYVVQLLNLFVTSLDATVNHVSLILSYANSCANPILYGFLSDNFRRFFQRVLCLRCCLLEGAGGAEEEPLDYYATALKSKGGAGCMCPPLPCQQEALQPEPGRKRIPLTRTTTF

Somatostatin receptor type 3, sequence (P32745 whole entry): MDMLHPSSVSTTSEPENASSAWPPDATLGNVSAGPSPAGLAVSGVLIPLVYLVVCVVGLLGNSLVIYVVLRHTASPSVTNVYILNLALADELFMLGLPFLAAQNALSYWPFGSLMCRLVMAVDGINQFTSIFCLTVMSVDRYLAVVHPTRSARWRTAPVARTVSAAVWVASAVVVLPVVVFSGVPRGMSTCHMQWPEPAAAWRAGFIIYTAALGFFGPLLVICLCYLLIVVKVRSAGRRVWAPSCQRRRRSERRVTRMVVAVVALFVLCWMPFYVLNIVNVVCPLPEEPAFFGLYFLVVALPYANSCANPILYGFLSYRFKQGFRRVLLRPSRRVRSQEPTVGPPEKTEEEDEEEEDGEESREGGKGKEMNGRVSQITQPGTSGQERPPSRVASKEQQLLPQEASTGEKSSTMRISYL
Somatostatin receptor type 1, sequence (P30872 whole entry): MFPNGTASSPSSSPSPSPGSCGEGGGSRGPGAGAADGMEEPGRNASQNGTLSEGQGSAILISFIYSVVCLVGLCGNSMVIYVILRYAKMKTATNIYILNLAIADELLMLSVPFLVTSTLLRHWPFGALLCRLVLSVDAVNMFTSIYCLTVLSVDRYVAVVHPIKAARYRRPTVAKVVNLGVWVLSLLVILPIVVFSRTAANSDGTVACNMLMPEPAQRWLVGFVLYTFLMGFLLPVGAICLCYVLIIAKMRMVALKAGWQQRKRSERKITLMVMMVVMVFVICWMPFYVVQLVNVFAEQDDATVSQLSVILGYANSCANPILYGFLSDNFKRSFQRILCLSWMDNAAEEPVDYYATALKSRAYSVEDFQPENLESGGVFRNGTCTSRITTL

A word on the Ki: it is the dissociation constant of the complex between target and ligand, obtained from inhibition or displacement. Read a low Ki as a stronger hold on the target. With `CC(C)[C@@H]1NC(=O)[C@H](CCCCN)NC(=O)[C@@H](Cc2c[nH]c3ccccc23)NC(=O)[C@H](Cc2ccc(O)cc2)NC(=O)[C@@H](C)N(C)C(=O)[C@H](Cc2ccccc2)NC1=O`, the Ki was 14.6 nM in assay [1] and 107 nM in assay [2].
As for `CC(C)[C@@H]1NC(=O)[C@H](CCCCN)NC(=O)[C@@H](Cc2c[nH]c3ccccc23)NC(=O)[C@H](Cc2ccc(O)cc2)NC(=O)[C@@H](NC(=O)[C@H](N)Cc2ccc3ccccc3c2)CSSC[C@@H](C(=O)N[C@H](C(N)=O)[C@@H](C)O)NC1=O` [3-(2-Naphtyl)-D-Ala-L-Cys(1)-L-Tyr-D-Trp-L-Lys-L-Val-L-Cys(1)-L-Thr-NH2], the Ki is 43 nM in assay [1] and 1.8 nM in assay [3].
On to `CC1NC(=O)C(CCCCN)NC(=O)C(Cc2c[nH]c3ccccc23)NC(=O)C(Cc2ccc(O)cc2)NC(=O)C(NC(=O)C(N)Cc2ccccc2)CSSCC(C(=O)NCc2cccc3ccccc23)NC1=O` (stereo not drawn) [BIM 23034] (H-FCYWKAC-{NH(1-naphthylmethyl)}; disulfide 2-7; configuration not given here), for which the Ki in assay [4] is 27 nM; in assay [1] it was 7.7 nM; in assay [3], 2.7 nM.
`CC(C)[C@@H]1NC(=O)[C@H](CCCCN)NC(=O)[C@@H](Cc2c[nH]c3ccccc23)NC(=O)[C@H](Cc2ccc(O)cc2)NC(=O)[C@@H](NC(=O)[C@H](N)Cc2ccc3ccccc3c2)CSSC[C@@H](C(=O)N[C@@H](Cc2ccc3ccccc3c2)C(N)=O)NC1=O` [BIM 23042] (H-[d2Nal]CY[dW]KVC[2Nal]-NH2; disulfide 2-7): the Ki in assay [4] turned out to be 1000 nM; in assay [3] it was 0.24 nM.
`C[C@H](NC(=O)[C@H](N)Cc1ccccc1)C(=O)N[C@@H](Cc1ccccc1)C(=O)N[C@H](Cc1c[nH]c2ccccc12)C(=O)N[C@@H](CCCCN)C(=O)N[C@H](C(=O)N[C@@H](C)C(=O)N[C@H](C(N)=O)[C@@H](C)O)[C@@H](C)O` [BIM 23051] (H-[dF]AF[dW]KTAT-NH2): the Ki in assay [4] is 49 nM; in assay [3], 1000 nM.
As to `CC(C)[C@H](NC(=O)[C@H](CCCCN)NC(=O)[C@@H](Cc1c[nH]c2ccccc12)NC(=O)[C@H](Cc1ccc(O)cc1)NC(=O)[C@H](Cc1ccccc1)NC(=O)[C@H](N)Cc1ccccc1)C(=O)N[C@@H](Cc1ccccc1)C(=O)N[C@H](Cc1cccc2ccccc12)C(N)=O` [BIM 23056] (H-[dF]FY[dW]KVF[d1Nal]-NH2), the Ki in assay [4] stood at 16.6 nM; in assay [1], 10.8 nM; in assay [3] it was 1000 nM; in assay [2] it was 142 nM.
For the compound `CC(C)[C@H](NC(=O)[C@H](CCCCN)NC(=O)[C@@H](Cc1c[nH]c2ccccc12)NC(=O)[C@H](Cc1ccc(O)cc1)NC(=O)[C@H](Cc1ccc(Cl)cc1)NC(=O)[C@H](N)Cc1ccccc1)C(=O)N[C@@H](Cc1ccccc1)C(=O)N[C@H](C(N)=O)[C@@H](C)O` [BIM 23057] (H-[dF][Phe(4-Cl)]Y[dW]KVFT-NH2), the inhibition constant Ki in assay [4] turned out to be 38.5 nM; in assay [3] it was 1000 nM.
In the case of `CC(O)C1NC(=O)C(CCCCN)NC(=O)C(Cc2c[nH]c3ccccc23)NC(=O)C(Cc2ccc(O)cc2)NC(=O)C(NC(=O)C(N)Cc2ccccc2)CSSCC(C(=O)NCc2cccc3ccccc23)NC1=O` (stereo not drawn) [BIM 23060] (H-FCYWKTC-{NH(1-naphthylmethyl)}; disulfide 2-7; configuration not given here), the Ki in assay [4] stood at 56 nM; in assay [1], 14.6 nM; in assay [3], 0.71 nM; in assay [2] it was 61 nM.
The like results for `CC[C@H](NC(=O)[C@@H](N)Cc1ccc(Cl)cc1)C(=O)N[C@@H](Cc1ccc(O)cc1)C(=O)N[C@H](Cc1c[nH]c2ccccc12)C(=O)N[C@@H](CCCCN)C(=O)N[C@H](C(=O)N[C@@H](C)C(=O)N[C@H](Cc1ccccc1)C(N)=O)C(C)C` [BIM 23067] (H-[Phe(4-Cl)][Abu]Y[dW]KVA[dF]-NH2) were, in that order, 1000 nM, 14.6 nM, 44.4 nM and 1000 nM.
Consider `C[C@@H](O)[C@H](NC(=O)[C@H](Cc1ccccc1)NC(=O)[C@@H](NC(=O)[C@H](CCCCN)NC(=O)[C@@H](Cc1c[nH]c2ccccc12)NC(=O)[C@H](Cc1ccc(O)cc1)NC(=O)[C@H](Cc1ccc(Cl)cc1)NC(=O)[C@H](N)Cc1ccccc1)[C@@H](C)O)C(N)=O` [BIM 23068] (H-[dF][Phe(4-Cl)]Y[dW]KTFT-NH2), for which the Ki in assay [4] is 9.8 nM; in assay [1], 1.54 nM; in assay [3] it was 1.55 nM.
For the compound `CC(C)[C@H](NC(=O)[C@H](CCCCN)NC(=O)[C@@H](Cc1c[nH]c2ccccc12)NC(=O)[C@H](Cc1ccc(O)cc1)NC(=O)[C@H](Cc1ccccc1)NC(=O)[C@H](N)Cc1ccccc1)C(=O)N[C@@H](Cc1ccccc1)C(=O)N[C@H](C(N)=O)[C@@H](C)O` [BIM-23058] (H-[dF]FY[dW]KVFT-NH2), the Ki came to 8.3 nM in assay [4], 1.4 nM in assay [1], 9.8 nM in assay [3] and 115 nM in assay [2].
The like results for `CC(C)[C@@H]1NC(=O)[C@H](CCCCN)NC(=O)[C@@H](Cc2c[nH]c3ccccc23)NC(=O)[C@H](Cc2ccc(O)cc2)NC(=O)[C@@H](NC(=O)[C@H](N)Cc2ccccc2)CSSC[C@@H](C(=O)N[C@@H](Cc2c[nH]c3ccccc23)C(N)=O)NC1=O` [CAS_71306] (H-[dF]CY[dW]KVCW-NH2; disulfide 2-7) were, in that order, 45 nM, 30.9 nM, 5.4 nM and 1000 nM.
For the compound `C[C@@H](O)[C@H](NC(=O)[C@H](Cc1ccccc1)NC(=O)[C@@H](NC(=O)[C@H](CCCCN)NC(=O)[C@@H](Cc1c[nH]c2ccccc12)NC(=O)[C@H](Cc1ccccc1)NC(=O)[C@H](Cc1ccccc1)NC(=O)[C@H](N)Cc1ccccc1)[C@@H](C)O)C(N)=O` [CAS_133073-82-2] (H-[dF]FF[dW]KTFT-NH2), the values for the Ki in assay [4], in assay [3] and in assay [2] were 141 nM, 13.5 nM and 31.3 nM, respectively.
As for `C[C@@H](O)[C@H](NC(=O)[C@H](Cc1ccccc1)NC(=O)[C@@H](NC(=O)[C@H](CCCCN)NC(=O)[C@@H](Cc1c[nH]c2ccccc12)NC(=O)[C@H](Cc1ccc(O)cc1)NC(=O)[C@H](Cc1ccc(Cl)cc1)NC(=O)[C@H](N)Cc1ccc2ccccc2c1)[C@@H](C)O)C(N)=O` [CAS_150155-63-8] (H-[d2Nal][Phe(4-Cl)]Y[dW]KTFT-NH2), the Ki in assay [4] worked out at 1000 nM; in assay [3], 26.2 nM.
Turning to `CC(C)[C@H](NC(=O)[C@H](CCCCN)NC(=O)[C@@H](Cc1c[nH]c2ccccc12)NC(=O)[C@H](Cc1ccc(O)cc1)NC(=O)[C@H](C)NC(=O)[C@H](N)Cc1ccc(Cl)cc1)C(=O)N[C@@H](C)C(=O)N[C@@H](Cc1ccc2ccccc2c1)C(N)=O` [CAS_150155-67-2] (H-[dPhe(4-Cl)]AY[dW]KVA[2Nal]-NH2), the inhibition constant Ki in assay [4] is 1000 nM; in assay [3], 55.5 nM.
Consider `CC(C)[C@H](NC(=O)[C@H](CCCCN)NC(=O)[C@@H](Cc1c[nH]c2ccccc12)NC(=O)[C@H](Cc1ccc(O)cc1)NC(=O)[C@H](C)NC(=O)[C@H](N)Cc1ccc2ccccc2c1)C(=O)N[C@@H](C)C(=O)N[C@H](C(N)=O)[C@@H](C)O` [D-Nal-Ala-Tyr-D-Trp-Lys-Val-Ala-Thr-NH2] (H-[d2Nal]AY[dW]KVAT-NH2), for which the inhibition constant (Ki) in assay [4] was 1000 nM; in assay [1] it was 13.1 nM; in assay [3], 5.9 nM.
As to `C[C@@H](O)[C@H](NC(=O)[C@@H]1CSSC[C@H](NC(=O)[C@H](N)Cc2ccc3ccccc3c2)C(=O)N[C@@H](Cc2ccc(O)cc2)C(=O)N[C@H](Cc2c[nH]c3ccccc23)C(=O)N[C@@H](CCCCN)C(=O)N[C@@H]([C@@H](C)O)C(=O)N1)C(N)=O` [D-Nal-c[Cys-Tyr-D-Trp-Lys-Thr-Cys]-Thr-NH2], the Ki was found to be 58 nM in assay [4], 11.5 nM in assay [1], 0.4 nM in assay [3] and 41 nM in assay [2].
With `CC[C@@H]1NC(=O)[C@H](CCCCN)NC(=O)[C@@H](Cc2c[nH]c3ccccc23)NC(=O)[C@H](Cc2ccc(O)cc2)NC(=O)[C@@H](NC(=O)[C@H](N)Cc2ccccc2)CSSC[C@@H](C(=O)N[C@@H](Cc2ccc3ccccc3c2)C(N)=O)NC1=O` [D-Phe-Cys-Tyr-D-Trp-Lys-Abu-Cys-Nal-NH] (H-[dF]CY[dW]K[Abu]C[2Nal]-NH2; disulfide 2-7), the Ki in assay [4] amounted to 1000 nM; in assay [1] it was 0.09 nM; in assay [3], 0.024 nM; in assay [2] it was 1000 nM.
Take `CC[C@@H]1NC(=O)[C@H](CCCCN)NC(=O)[C@@H](Cc2c[nH]c3ccccc23)NC(=O)[C@H](Cc2ccc(O)cc2)NC(=O)[C@@H](NC(=O)[C@H](N)Cc2ccccc2)CSSC[C@@H](C(=O)N[C@H](C(N)=O)[C@@H](C)O)NC1=O` [D-Phe-L-Cys(1)-L-Tyr-D-Trp-L-Lys-L-Abu-L-Cys(1)-L-Thr-NH2]: the Ki turned out to be 1000 nM in assay [4] and 8.2 nM in assay [1].
`CC(C)[C@H](NC(=O)[C@H](CCCCN)NC(=O)[C@@H](Cc1c[nH]c2ccccc12)NC(=O)[C@H](Cc1ccc(O)cc1)NC(=O)[C@H](Cc1ccccc1)NC(=O)[C@H](N)Cc1ccccc1)C(=O)N[C@@H](Cc1ccccc1)C(=O)N[C@H](Cc1ccccc1)C(N)=O` [D-Phe-Phe-Tyr-D-Trp-Lys-Val-Phe-D-Phe-NH2] (H-[dF]FY[dW]KVF[dF]-NH2): the Ki worked out at 500 nM in assay [4] and 1000 nM in assay [3].
As to `CC(O)C1NC(=O)C(CCCCN)NC(=O)C(Cc2c[nH]c3ccccc23)NC(=O)C(Cc2ccccc2)NC(=O)C(NC(=O)C(N)Cc2ccccc2)CSSCC(C(=O)NCc2cccc3ccccc23)NC1=O` (stereo not drawn) [EC5-21] (H-FCFWKTC-{NH(1-naphthylmethyl)}; disulfide 2-7; configuration not given here), the inhibition constant (Ki) in assay [4] stood at 207 nM; in assay [1], 69 nM; in assay [3], 0.028 nM.
Turning to `CC(C)[C@H](NC(=O)[C@H](CCCCN)NC(=O)[C@@H](Cc1c[nH]c2ccccc12)NC(=O)[C@H](Cc1ccc(O)cc1)NC(=O)[C@H](C)NC(=O)[C@H](N)Cc1ccccc1)C(=O)N[C@@H](C)C(=O)N[C@@H](Cc1ccc2ccccc2c1)C(N)=O` [L-Alaninamide,D-phenylalanyl-L-alanyl-L-tyrosyl-D-tryptophyl-L-lysyl-L-valyl-L-alanyl-3-(2-naphthalenyl)-(9CI)] (H-[dF]AY[dW]KVA[2Nal]-NH2), the Ki in assay [4] turned out to be 1000 nM; in assay [3], 8.3 nM.
